Experimental data from US8163771B2, “11 β-HSD1 modulators” (Exelixis, Inc., priority 2008, dated 2012).

Target: T1, recombinant human 11 β-HSD1 (Homo sapiens, UniProt P28845)
T1 construct: made in house; host or cells: E. coli
Experiment: 11 β-HSD1 SPA Assay (Scintillation Proximity Assay)
Format: biochemical
Procedure, shortened: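 Scintillation proximity read-out of cortisol formed from 40 nM [3H]cortisone by purified recombinant human enzyme (30-100 nM, E. coli) with 1 mM NADPH, pH7.4, 2 hours at room temperature; beads with cortisol antibody and glycyrrhetinic acid stop the reaction, read next day. IC50 derived from inhibition normalised to background and maximal wells.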

T1 sequence (P28845 whole entry): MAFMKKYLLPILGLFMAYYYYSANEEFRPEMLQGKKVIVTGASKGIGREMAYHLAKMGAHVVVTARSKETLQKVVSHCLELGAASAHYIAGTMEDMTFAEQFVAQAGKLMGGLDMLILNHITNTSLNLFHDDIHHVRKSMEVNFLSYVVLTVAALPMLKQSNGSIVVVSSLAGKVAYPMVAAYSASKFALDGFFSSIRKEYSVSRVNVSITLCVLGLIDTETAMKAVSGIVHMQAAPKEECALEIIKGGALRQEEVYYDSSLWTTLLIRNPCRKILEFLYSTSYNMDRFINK

| Compound | IC50 [nM] |
| --- | --- |
| O=C(NC1CC1)c1ccc(N2[C@@H]3CC[C@H]2C[C@@H](NC(=O)C2(c4ccc(Cl)cc4)CC2)C3)c(Cl)c1 [Example 118, 3-chloro-4-[3-endo-({[1-(4-chlorophenyl)cyclopropyl]carbonyl}amino)-8-azabicyclo[3.2.1]oct-8-yl]-N-cyclopropylbenzamide] | < 200 |
| CC(C)(Oc1ccc(Cl)cc1Cl)C(=O)N[C@H]1C[C@H]2CC[C@@H](C1)N2c1ccc(NC(=O)C2CC2)cn1 [Example 92, N-{6-[3-endo-({2-[(2,4-dichlorophenyl)oxy]-2-methylpropanoyl}amino)-8-azabicyclo[3.2.1]oct-8-yl]pyridin-3-yl}cyclopropanecarboxamide] | < 200 |
| CC(C)(Oc1ccc(Cl)cc1S(C)(=O)=O)C(=O)N[C@H]1C[C@H]2CC[C@@H](C1)N2c1ccc(C(=O)NCC(F)F)cn1 [Example 422, 6-[3-endo-({2-[4-chloro-2-(methylsulfonyl)phenoxy]-2-methylpropanoyl}amino)-8-azabicyclo[3.2.1]oct-8-yl]-N-(2,2-difluoroethyl)pyridine-3-carboxamide] | < 200 |
| CS(=O)(=O)c1ccc(N2[C@@H]3CC[C@H]2C[C@@H](NC(=O)C2(c4ccc(F)c(F)c4)CC2)C3)nc1 [Example 281, 1-(3,4-difluorophenyl)-N-{8-[5-(methylsulfonyl)pyridin-2-yl]-8-azabicyclo[3.2.1]oct-3-endo-yl}cyclopropanecarboxamide] | < 2000 |
| CC(C)(Oc1ccc(Cl)cc1Cl)C(=O)NC1CC2CCC(C1)N2c1ncc(NC(=O)CC(F)(F)F)cc1Cl (stereo not drawn) [Example 278, N-{5-chloro-6-[3-endo-({2-[(2,4-dichlorophenyl)oxy]-2-methylpropanoyl}amino)-8-azabicyclo[3.2.1]oct-8-yl]pyridin-3-yl}-3,3,3-trifluoropropanamide] | < 2000 |
| CC(C)(Oc1ccccc1OC(F)(F)F)C(=O)N[C@H]1C[C@H]2CC[C@@H](C1)N2c1ccc(C(=O)NCC(F)(F)F)cn1 [Example 347, 6-[3-endo-({2-methyl-2-[2-(trifluoromethoxy)phenoxy]propanoyl}amino)-8-azabicyclo[3.2.1]oct-8-yl]-N-(2,2,2-trifluoroethyl)pyridine-3-carboxamide] | < 200 |
| CC(C)(Oc1ccc(F)cc1Cl)C(=O)N[C@H]1C[C@H]2CC[C@@H](C1)N2c1ccc(NS(C)(=O)=O)cc1 [Example 315, 2-[(2-chloro-4-fluorophenyl)oxy]-2-methyl-N-(8-{4-[(methylsulfonyl)amino]phenyl}-8-azabicyclo[3.2.1]oct-3-endo-yl)propanamide] | < 200 |
| CC(C)(Oc1ccc(Cl)c2ccccc12)C(=O)N[C@H]1C[C@H]2CC[C@@H](C1)N2c1ccc(C(N)=O)cn1 [Example 297, 6-[3-endo-({2-[(4-chloronaphthalen-1-yl)oxy]-2-methylpropanoyl}amino)-8-azabicyclo[3.2.1]oct-8-yl]pyridine-3-carboxamide] | < 200 |
| CC(C)(Oc1ccc(Cl)cc1C1CCCC1)C(=O)N[C@H]1C[C@H]2CC[C@@H](C1)N2c1ccc(C(N)=O)cn1 [Example 320, 6-[3-endo-({2-[(4-chloro-2-cyclopentylphenyl)oxy]-2-methylpropanoyl}amino)-8-azabicyclo[3.2.1]oct-8-yl]pyridine-3-carboxamide] | < 200 |
| O=C(NC1CC1)c1ccc(N2[C@@H]3CC[C@H]2C[C@@H](NC(=O)C2(c4ccc(Cl)cc4)CC2)C3)cc1Cl [Example 63, 2-chloro-4-[3-endo-({[1-(4-chlorophenyl)cyclopropyl]carbonyl}amino)-8-azabicyclo[3.2.1]oct-8-yl]-N-cyclopropylbenzamide] | < 200 |
| CC(C)(Oc1ccc(F)cc1)C(=O)N[C@H]1C[C@H]2CC[C@@H](C1)N2c1ccc(S(C)(=O)=O)cn1 [Example 230, 2-[(4-fluorophenyl)oxy]-2-methyl-N-{8-[5-(methylsulfonyl)pyridin-2-yl]-8-azabicyclo[3.2.1]oct-3-endo-yl}propanamide] | < 2000 |
| CC(C)(Oc1ccc(Cl)c(Cl)c1)C(=O)N[C@H]1C[C@H]2CC[C@@H](C1)N2c1ccc(C(=O)NCC(F)(F)F)cn1 [Example 83, 6-[3-endo-({2-[(3,4-dichlorophenyl)oxy]-2-methylpropanoyl}amino)-8-azabicyclo[3.2.1]oct-8-yl]-N-(2,2,2-trifluoroethyl)pyridine-3-carboxamide] | < 200 |
| CC(C)(Oc1ccc(F)cc1C(F)(F)F)C(=O)N[C@H]1C[C@H]2CC[C@@H](C1)N2c1ccc(C(N)=O)cn1 [Example 168, 6-{3-endo-[(2-{[4-fluoro-2-(trifluoromethyl)phenyl]oxy}-2-methylpropanoyl)amino]-8-azabicyclo[3.2.1]oct-8-yl}pyridine-3-carboxamide] | < 200 |
| CC(C)(Oc1ccc(F)c(Cl)c1)C(=O)N[C@H]1C[C@H]2CC[C@@H](C1)N2c1ccc(S(N)(=O)=O)cn1 [Example 227, N-{8-[5-(aminosulfonyl)pyridin-2-yl]-8-azabicyclo[3.2.1]oct-3-endo-yl}-2-[(3-chloro-4-fluorophenyl)oxy]-2-methylpropanamide] | < 200 |
| CC(C)NC(=O)c1ccc(N2[C@@H]3CC[C@H]2C[C@@H](NC(=O)C2(c4ccc(Cl)cc4)CC2)C3)nc1 [Example 12, 6-[3-endo-({[1-(4-chlorophenyl)cyclopropyl]carbonyl}amino)-8-azabicyclo[3.2.1]oct-8-yl]-N-(1-methylethyl)pyridine-3-carboxamide] | < 200 |
| CC(C)(Oc1ccc(Cl)cc1Cl)C(=O)N[C@H]1C[C@H]2CC[C@@H](C1)N2c1ncc(C(=O)NCC(F)(F)F)cc1Cl [Example 131, 5-chloro-6-[3-endo-({2-[(2,4-dichlorophenyl)oxy]-2-methylpropanoyl}amino)-8-azabicyclo[3.2.1]oct-8-yl]-N-(2,2,2-trifluoroethyl)pyridine-3-carboxamide] | < 200 |
| CC(C)(Oc1ccc(Cl)cc1OC(F)(F)F)C(=O)NC1CC2CCC(C1)N2c1ccc(C(=O)N2CCC(O)C2)cn1 (stereo not drawn) [Example 454, 2-[4-chloro-2-(trifluoromethoxy)phenoxy]-n-(8-{5-[(3-hydroxypyrrolidin-1-yl)carbonyl]pyridin-2-yl}-8-azabicyclo[3.2.1]oct-3-endo-yl)-2-methylpropanamide] | < 200 |
| CC(C)NC(=O)c1ccc(N2[C@@H]3CC[C@H]2C[C@@H](NC(=O)C(C)(C)Oc2ccc(Cl)cc2S(C)(=O)=O)C3)nc1 [Example 368, 6-[3-endo-({2-[4-chloro-2-(methylsulfonyl)phenoxy]-2-methylpropanoyl}amino)-8-azabicyclo[3.2.1]oct-8-yl]-N-(propan-2-yl)pyridine-3-carboxamide] | < 200 |
| CC(C)(Oc1ccccc1C(F)(F)F)C(=O)N[C@H]1C[C@H]2CC[C@@H](C1)N2c1ccc(C(=O)NC2CC2)cn1 [Example 113, N-cyclopropyl-6-{3-endo-[(2-methyl-2-{[2-(trifluoromethyl)phenyl]oxy}propanoyl)amino]-8-azabicyclo[3.2.1]oct-8-yl}pyridine-3-carboxamide] | < 200 |
| CC(C)(Oc1cc(Cl)c(CO)cc1Cl)C(=O)N[C@H]1C[C@H]2CC[C@@H](C1)N2c1ccc(C(=O)NCC(F)F)cn1 [Example 464, 6-[3-endo-({2-[2,5-dichloro-4-(hydroxymethyl)phenoxy]-2-methylpropanoyl}amino)-8-azabicyclo[3.2.1]oct-8-yl]-N-(2,2-difluoroethyl)pyridine-3-carboxamide] | < 200 |
| CC(C)(Oc1ccc(F)cc1Cl)C(=O)NC1CC2CCC(C1)N2c1ccc(C(=O)NC2CC2(F)F)cn1 (stereo not drawn) [Example 349, 6-(3-endo-{[2-(2-chloro-4-fluorophenoxy)-2-methylpropanoyl]amino}-8-azabicyclo[3.2.1]oct-8-yl)-N-(2,2-difluorocyclopropyl)pyridine-3-carboxamide] | < 200 |
| CC(C)(Oc1ccc(F)cc1C(F)(F)F)C(=O)N[C@H]1C[C@H]2CC[C@@H](C1)N2c1ccc(C(=O)NCC(F)F)cn1 [Example 372, N-(2,2-difluoroethyl)-6-[3-endo-({2-[4-fluoro-2-(trifluoromethyl)phenoxy]-2-methylpropanoyl}amino)-8-azabicyclo[3.2.1]oct-8-yl]pyridine-3-carboxamide] | < 200 |
| CC(C)(Oc1cc(-c2ccccc2)ccc1Cl)C(=O)N[C@H]1C[C@H]2CC[C@@H](C1)N2c1ccc(C(N)=O)cn1 [Example 344, 6-[3-endo-({2-[(4-chlorobiphenyl-3-yl)oxy]-2-methylpropanoyl}amino)-8-azabicyclo[3.2.1]oct-8-yl]pyridine-3-carboxamide] | < 200 |
| CC(C)(Oc1ccc(Cl)cc1Cl)C(=O)N[C@H]1C[C@H]2CC[C@@H](C1)N2c1ccc(C(=O)NCCCn2ccnc2)cn1 [Example 341, 6-(3-endo-{[2-(2,4-dichlorophenoxy)-2-methylpropanoyl]amino}-8-azabicyclo[3.2.1]oct-8-yl)-N-[3-(1h-imidazol-1-yl)propyl]pyridine-3-carboxamide] | < 200 |
| CC(C)(Oc1ccc(Cl)cc1Cl)C(=O)N[C@H]1C[C@H]2CC[C@@H](C1)N2c1ccc(S(C)(=O)=O)cc1 [Example 120, 2-[(2,4-dichlorophenyl)oxy]-2-methyl-N-{8-[4-(methylsulfonyl)phenyl]-8-azabicyclo[3.2.1]oct-3-endo-yl}propanamide] | < 200 |
| CC(C)(Oc1ccccc1S(C)(=O)=O)C(=O)N[C@H]1C[C@H]2CC[C@@H](C1)N2c1ccc(C(N)=O)cn1 [Example 326, 6-{3-endo-[(2-methyl-2-{[2-(methylsulfonyl)phenyl]oxy}propanoyl)amino]-8-azabicyclo[3.2.1]oct-8-yl}pyridine-3-carboxamide] | < 200 |
| O=C(NC1CC1)c1ccc(N2[C@@H]3CC[C@H]2C[C@@H](NC(=O)C2(c4cccc(F)c4)CC2)C3)nc1 [Example 39, N-cyclopropyl-6-[3-endo-({[1-(3-fluorophenyl)cyclopropyl]carbonyl}amino)-8-azabicyclo[3.2.1]oct-8-yl]pyridine-3-carboxamide] | < 200 |
